{
  "source": "patent US8563746B2",
  "about": "“Cyclic benzimidazole derivatives useful as anti-diabetic agents” (Merck Sharp & Dohme Corp, priority 2008, dated 2013)",
  "data": [
    {"test_system": "ob/ob and db/db mice", "test": "not given", "conditions": "following 8 weeks of administration; cited from earlier work", "units": {"blood glucose reduction": "%"}, "values": [
      {"smiles": "NC(=O)c1ncn([C@@H]2O[C@H](CO)[C@@H](O)[C@H]2O)c1N", "note": "[AICAR]", "blood glucose reduction": 35}
    ]},
    {"target": "recombinant human AMPK complex 1 (containing α1β1γ1) (Homo sapiens, UniProt Q13131+Q9Y478)", "sequence (Q13131 whole entry)": "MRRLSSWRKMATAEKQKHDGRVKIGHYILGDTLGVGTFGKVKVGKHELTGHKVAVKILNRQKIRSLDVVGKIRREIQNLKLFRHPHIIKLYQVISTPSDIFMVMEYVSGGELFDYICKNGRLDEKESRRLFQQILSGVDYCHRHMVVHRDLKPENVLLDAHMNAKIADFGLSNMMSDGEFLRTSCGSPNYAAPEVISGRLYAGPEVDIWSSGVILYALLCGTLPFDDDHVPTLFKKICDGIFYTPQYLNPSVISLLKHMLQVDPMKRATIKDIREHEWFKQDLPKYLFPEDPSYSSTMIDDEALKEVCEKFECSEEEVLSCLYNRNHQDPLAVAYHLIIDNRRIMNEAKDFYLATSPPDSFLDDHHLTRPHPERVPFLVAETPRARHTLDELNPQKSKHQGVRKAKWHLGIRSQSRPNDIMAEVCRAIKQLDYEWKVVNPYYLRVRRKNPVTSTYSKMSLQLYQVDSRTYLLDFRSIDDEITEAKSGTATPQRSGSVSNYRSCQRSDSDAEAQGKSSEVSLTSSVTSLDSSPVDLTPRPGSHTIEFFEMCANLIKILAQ", "sequence (Q9Y478 whole entry)": "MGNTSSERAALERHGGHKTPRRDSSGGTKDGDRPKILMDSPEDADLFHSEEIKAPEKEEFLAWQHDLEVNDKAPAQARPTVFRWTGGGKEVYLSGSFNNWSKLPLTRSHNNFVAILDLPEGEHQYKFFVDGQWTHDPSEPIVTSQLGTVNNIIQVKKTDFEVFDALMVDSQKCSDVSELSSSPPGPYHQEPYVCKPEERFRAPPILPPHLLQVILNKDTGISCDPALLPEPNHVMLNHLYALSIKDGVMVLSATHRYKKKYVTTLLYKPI", "sequence (P54619 whole entry partner)": "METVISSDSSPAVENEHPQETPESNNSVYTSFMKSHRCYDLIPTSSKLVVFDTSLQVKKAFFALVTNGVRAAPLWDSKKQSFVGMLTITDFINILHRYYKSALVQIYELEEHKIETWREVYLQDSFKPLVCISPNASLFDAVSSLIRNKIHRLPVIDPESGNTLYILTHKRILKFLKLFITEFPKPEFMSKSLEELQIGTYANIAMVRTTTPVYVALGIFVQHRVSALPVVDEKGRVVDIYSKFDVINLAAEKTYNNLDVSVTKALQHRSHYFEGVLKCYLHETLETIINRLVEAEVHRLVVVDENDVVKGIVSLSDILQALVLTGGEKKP", "test": "In vitro AMPK activation assay ([…])", "type": "biochemical", "conditions": "recombinant human AMPK complex 1 (α1β1γ1); basal activity subtracted, expressed as % maximum AMP activation", "protocol": "(§1) The recombinant human AMPK complex 1 (containing α1β1γ1) was obtained from baculovirus expression system. Recombinant viruses were generated by cotransfection of AMPK/pBacPak9 clones with Baculogold baculovirus DNA (Pharmingen) in spodoptera frugiperda 21 cells according to the manufacturer's instructions. Each round of virus amplification was performed for 5 days in Grace's medium containing 10% serum. Virus that had been subjected to three rounds of amplification was used for all protein production procedures. To express the AMPK complex, sf21 cells were adapted to serum free medium (SF900 II, Invitrogen) by sequential dilution from serum containing stocks into SF900II medium and maintained in shaker flasks at 90 rpm at 27° C. The recombinant AMPK enzyme complex was produced by triple infection, one recombinant virus for each of the subunits, in sf21 cells under serum free conditions. Cells were infected in log phase, 1×10^6 cells/ml, at a multiplicity of infection of ˜5. Cells were harvested by centrifugation at 10,000×g for 15 minutes after 72 hours of infection with viruses. The insect cell pellet from 2 liters of culture was resuspended in 50 ml lysis buffer (20 mM Tris-HCl, 50 mM NaCl, 50 mM NaF, 30 mM Na PPi, 0.25 M sucrose, 10 mM ZnCl2, 2 mM DTT, 0.4 mg/ml digitonin) and subjected to two cycles of freeze-thaw lysis in a dry-ice ethanol bath. Insoluble material was removed by centrifugation at 10,000×g and the supernatant was fractionated with use of polyethylene glycol (PEG). The protein fraction precipitating between 2.5 and 6% PEG was used for further purification using a Blue-Sepharose step (Zhou et al, J. Clin. Invest. 108, 1167-1174, 2001).\n(§2) The total in vitro AMPK activation assay volume is 50 μl in a 96-well plate. The reaction mixture contained 100 μM ATP (0.5 μCi ^33P-ATP per reaction), and 50 μM SAMS ([…]) in a buffer (20 mM HEPES, pH 7.0, 5 mM MgCl2, 0.01% Brij35). The reaction was initiated with addition of the enzyme. After 30-minute incubation at 30° C., the reaction was stopped by addition of 80 μl 1% H3PO4. Aliquots (100 μl) were transferred to 96-well MultiScreen plates (MAPHNOB50; Millipore Corp., Bedford, Mass., USA). The plate was washed three times with 1% H3PO4 followed by detection in a Top-count. The counts per minute from the basal activity (the reaction without activator) was subtracted from each well and the data were expressed as % maximum AMP activation followed by EC50 calculation.", "units": {"Emax": "%"}, "values": [
      {"smiles": "O=C(O)CSc1nc2cc(C#Cc3ccc(Cl)cc3)c(Cl)cc2[nH]1", "note": "[Example 67]", "Emax": "> 40"},
      {"smiles": "O=C(O)CSc1nc2cc(C#Cc3ccc(Br)cc3)c(Cl)cc2[nH]1", "note": "[Example 68]", "Emax": "> 40"},
      {"smiles": "O=C(O)CSc1nc2cc(C#Cc3cc(F)cc(F)c3)c(Cl)cc2[nH]1", "note": "[Example 69]", "Emax": "> 40"},
      {"smiles": "O=C(O)CSc1nc2cc(C#Cc3ccccc3[N+](=O)[O-])c(Cl)cc2[nH]1", "note": "[Example 70]", "Emax": "> 40"},
      {"smiles": "O=C(O)CSc1nc2cc(-c3cccc(N4CCOCC4)n3)c(Cl)cc2[nH]1", "note": "[Example 71]", "Emax": "> 40"},
      {"smiles": "O=C(O)CSc1nc2cc(-c3csc(-c4ccccc4)n3)c(Cl)cc2[nH]1", "note": "[Example 72]", "Emax": "> 40"},
      {"smiles": "O=C(O)CSc1nc2cc(-c3ccc(-c4cnccn4)cc3)c(Cl)cc2[nH]1", "note": "[Example 73]", "Emax": "> 40"},
      {"smiles": "CCc1ccc(C(=O)Cc2cc3nc(SCC(=O)O)[nH]c3cc2Cl)cc1", "note": "[Example 74]", "Emax": "> 40"},
      {"smiles": "O=C(O)CSc1nc2cc(C#Cc3ccc(C(=O)O)cc3)c(Cl)cc2[nH]1", "note": "[Example 75]", "Emax": "> 40"},
      {"smiles": "CC(=O)Nc1ccc(C#Cc2cc3nc(SCC(=O)O)[nH]c3cc2Cl)cc1", "note": "[Example 76]", "Emax": "> 40"},
      {"smiles": "CS(=O)(=O)Nc1ccc(C#Cc2cc3nc(SCC(=O)O)[nH]c3cc2Cl)cc1", "note": "[Example 77]", "Emax": "> 40"},
      {"smiles": "CCNC(=O)Nc1ccc(C#Cc2cc3nc(SCC(=O)O)[nH]c3cc2Cl)cc1", "note": "[Example 78]", "Emax": "> 40"},
      {"smiles": "O=C(O)CSc1nc2cc(-c3ccc(Br)cc3)c(Cl)cc2[nH]1", "note": "[Example 79]", "Emax": "> 40"},
      {"smiles": "O=C(O)CSc1nc2cc(-c3ccc(C(F)(F)F)cc3)c(Cl)cc2[nH]1", "note": "[Example 81]", "Emax": "> 40"},
      {"smiles": "CN(C)C(=O)c1ccc(C#Cc2cc3nc(SCC(=O)O)[nH]c3cc2Cl)cc1", "note": "[Example 82]", "Emax": "> 40"},
      {"smiles": "CNC(=O)c1ccc(C#Cc2cc3nc(SCC(=O)O)[nH]c3cc2Cl)cc1", "note": "[Example 83]", "Emax": "> 40"},
      {"smiles": "CSc1ccc(-c2cc3nc(SCC(=O)O)[nH]c3cc2Cl)cc1", "note": "[Example 84]", "Emax": "> 40"},
      {"smiles": "Cc1cc(-c2cc3nc(SCC(=O)O)[nH]c3cc2Cl)ccc1Cl", "note": "[Example 85]", "Emax": "> 40"},
      {"smiles": "C[S+]([O-])c1ccc(-c2cc3nc(SCC(=O)O)[nH]c3cc2Cl)cc1", "note": "(stereo not drawn) [Example 86]", "Emax": "> 40"}
    ]},
    {"target": "recombinant human AMPK complex 1 (containing α1β1γ1) (Homo sapiens, UniProt Q13131+Q9Y478)", "test": "In vitro AMPK activation assay ([…])", "type": "biochemical", "conditions": "recombinant human AMPK complex 1 (α1β1γ1); read-out: EC50", "protocol": "as §1, §2", "units": {"EC50": "nM"}, "values": [
      {"smiles": "O=C(O)CSc1nc2cc(-c3ccc4[nH]ccc4c3)c(Cl)cc2[nH]1", "note": "[Example 66]", "EC50": 282}
    ]}
  ]
}
